Source: ChEMBL document CHEMBL4321815, “Discovery of an Extremely Potent Thiazine-Based β-Secretase Inhibitor with Reduced Cardiovascular and Liver Toxicity at a Low Projected Human Dose” (J Med Chem, 2019)

How the values were obtained:
[1] = Oral bioavailability in dog at 2.5 mg/kg; format: ADME, organism-based, Canis lupus familiaris; conditions: in vivo
[2] = Cmax in Cynomolgus monkey at 2.5 mg/kg, po by LC/MS/MS analysis; format: ADME, organism-based, Macaca fascicularis; parameters: dose 2.5 mg/kg, route oral; conditions: in vivo
[3] = Fraction unbound in dog plasma after 24 hrs by equilibrium dialysis based LC-MS/MS analysis; format: ADME, cell-free, Canis lupus familiaris
[4] = Volume of distribution at steady state in mouse at 0.5 mg/kg, iv; format: ADME, organism-based; conditions: in vivo, read-out: Vdss
[5] = Volume of distribution at steady state in Cynomolgus monkey at 0.5 mg/kg, iv by LC/MS/MS analysis; format: ADME, organism-based, Macaca fascicularis; conditions: in vivo, read-out: Vdss
[6] = Drug level in Crl:CD1(ICR) mouse brain at 3 mg/kg, po at 6 hrs; format: ADME, organism-based; conditions: read-out: Drug uptake
[7] = Fraction unbound in mouse brain at 5 uM incubated for 5 hrs by HPLC-MS/MS analysis; format: ADME, tissue-based
[8] = AUC (0 to 24 hrs) in Sprague-Dawley rat at 250 mg/kg/day administered as suspension for 2 weeks; format: ADME, organism-based; parameters: dose 250 mg/kg/day, time < 24 hr; conditions: in vivo
Mus musculus = assay: In vivo inhibition of BACE1 in Crl:CD1(ICR) mouse assessed as reduction in amyloidbeta level in brain at 3 mg/kg, po after 2 to 6 hrs by ELISA relative to control; format: functional
[9] = Half life in mouse at 0.5 mg/kg, iv; format: ADME, organism-based; conditions: in vivo
[10] = AUC in Sprague-Dawley rat at 2.5 mg/kg, po by LC/MS/MS analysis; format: ADME, organism-based; conditions: in vivo
Canis familiaris [11] = organism: Canis familiaris; assay: animal or person; format: functional, organism-based; conditions: Canis lupus familiaris, Beagle
Canis familiaris [12] = assay: In vivo inhibition of BACE1 in Beagle dog assessed as reduction in amyloidbeta42 level in CSF at 0.08 mg/kg, po administered as single dose measured after 4 to 49 hrs relative to control; format: functional; conditions: Canis lupus familiaris
[13] = Cmax in mouse at 2.5 mg/kg, po; format: ADME, organism-based; parameters: dose 2.5 mg/kg, route oral; conditions: in vivo
[14] = Unbound brain-to-plasma concentration ratio in Sprague-Dawley rat at 0.5 mg/kg, iv after 30 mins by LC-MS/MS analysis; format: ADME, organism-based; conditions: brain and plasma, read-out: K(p,uu,brain)
[15] = Fraction unbound in mouse plasma after 24 hrs by equilibrium dialysis based LC-MS/MS analysis; format: ADME, cell-free
Canis familiaris [16] = assay: In vivo inhibition of BACE1 in Beagle dog assessed as reduction in amyloidbeta42 level in CSF at 1.25 mg/kg, po administered as single dose measured after 4 to 49 hrs relative to control; format: functional; conditions: Canis lupus familiaris
[17] = Oral bioavailability in mouse at 2.5 mg/kg; format: ADME, organism-based; conditions: in vivo
[18] = Metabolic stability in human hepatocytes at 2 uM incubated for 2 hr; format: ADME, cell-based, Hepatocyte; conditions: read-out: Stability
[19] = Half life in Cynomolgus monkey at 0.5 mg/kg, iv by LC/MS/MS analysis; format: ADME, organism-based, Macaca fascicularis; conditions: in vivo
[20] = Volume of distribution at steady state in dog at 0.5 mg/kg, iv; format: ADME, organism-based, Canis lupus familiaris; conditions: in vivo, read-out: Vdss
[21] = Clearance in Cynomolgus monkey at 0.5 mg/kg, iv by LC/MS/MS analysis; format: ADME, organism-based, Macaca fascicularis; conditions: in vivo
[22] = Unbound CSF to plasma concentration ratio in Beagle dog at 0.08 to […], po measured up to 49 hrs; format: ADME, organism-based, Canis lupus familiaris; conditions: CSF and plasma
[23] = Toxicity in po dosed Sprague-Dawley rat administered as suspension for 2 weeks; format: organism-based; conditions: in vivo
[24] = AUC in dog at 2.5 mg/kg, po; format: ADME, organism-based, Canis lupus familiaris; conditions: in vivo
[25] = Half life in Sprague-Dawley rat at 0.5 mg/kg, iv by LC/MS/MS analysis; format: ADME, organism-based; conditions: in vivo
[26] = Tmax in Sprague-Dawley rat at 2.5 mg/kg, po by LC/MS/MS analysis; format: ADME, organism-based; conditions: in vivo
[27] = Metabolic stability in cynomolgus monkey hepatocytes at 2 uM incubated for 2 hr; format: ADME, cell-based, Macaca fascicularis, Hepatocyte; conditions: read-out: Stability
[28] = Clearance in Sprague-Dawley rat at 0.5 mg/kg, iv by LC/MS/MS analysis; format: ADME, organism-based; conditions: in vivo
[29] = AUC in Beagle dog at 6 mg/kg/day, po administered for 2 weeks; format: ADME, organism-based, Canis lupus familiaris; conditions: in vivo
[30] = AUC in Cynomolgus monkey at 2.5 mg/kg, po by LC/MS/MS analysis; format: ADME, organism-based, Macaca fascicularis; conditions: in vivo
[31] = Half life in dog at 0.5 mg/kg, iv; format: ADME, organism-based, Canis lupus familiaris; conditions: in vivo
[32] = Fraction unbound in human plasma after 24 hrs by equilibrium dialysis based LC-MS/MS analysis; format: ADME, cell-free

C[C@H]1SC(N)=N[C@](C)(c2cc(NC(=O)c3cnc(OCF)cn3)ccc2F)[C@H]1F
bioavailability [1]: 95% | Cmax [2]: 54 ng/mL | fraction unbound at 24 h [3]: 0.078 | Vd [4]: 7.5 L/kg | Vd [5]: 7 L/kg | concentration at 6 h [6]: 611 nM | fraction unbound at 5 h, 5 µM [7]: 0.034 | AUC at 24 h [8]: 68000 ng·h/mL | inhibition in vivo at 3 mg/kg (Mus musculus): 90% | half-life [9]: 3.2 h | AUC [10]: 566 ng·h/mL | EC50 (Canis familiaris [11]): 1.8 nM | inhibition in vivo at 0.08 mg/kg (Canis familiaris [12]): 50% | Cmax [13]: 195 ng/mL | Kp uu at 0.5 h [14]: 0.95 | fraction unbound at 24 h [15]: 0.15 | inhibition in vivo at 1.25 mg/kg (Canis familiaris [16]): 80% | bioavailability [17]: 58% | remaining at 2 h, 2 µM [18]: 89% | half-life [19]: 4.9 h | Vd [20]: 2.8 L/kg | clearance [21]: 23 mL/min/kg | Kp uu at 49 h [22]: 0.77 | NOAEL at 336 h [23]: 250 mg/kg/day | AUC [24]: 10400 ng·h/mL | half-life [25]: 2.2 h | Tmax [26]: 0.7 h | remaining at 2 h, 2 µM [27]: 55% | clearance [28]: 24.8 to 27 mL/min/kg | AUC at 336 h [29]: 41000 ng·h/mL | AUC [30]: 429 ng·h/mL | half-life [31]: 13.7 h | fraction unbound at 24 h [32]: 0.083
